Patent US20140037792A1, “Isolated microorganism strains Lactobacillus plantarum MCC1 DSM 23881 and Lactobacillus gasseri MCC2 DSM 23882 and their use” (Bio-Competence Centre of Healthy Dairy Products, priority 2011, published 2014)
≈ marks a conversion by molar mass, not a printed value. Read-outs that look alike come from different tables or passages of the source.

Legend:
L. plantarum = conditions: FEEDAP Panel EFSA 2008; cited from earlier work
[1] = test system: L. gasseri MCC2 DSM 23882; experiment: Antibiotic susceptibility, E-test; format: cell-based
Method: (§1) Methodology: The susceptibility of L. plantarum MCC1 and L. gasseri MCC2 to antibiotics was tested with the help of E-test (AB Biodisk, Solna). The minimum inhibitory concentration was determined according to the epidemiological breakpoints recommended by the European Commission.

[2] = test system: L. plantarum MCC1 DSM 23881; experiment: Antibiotic susceptibility, E-test; format: cell-based; conditions: for resistance of L. plantarum MCC1 to the antibiotic: according to European Commission indicators for lactobacilli
Method: as §1

[3] = test system: Obligately homofermentative lactobacilli (OHOL); conditions: FEEDAP Panel EFSA 2008; cited from earlier work
Lactobacillus spp = conditions: European Commission 2002; cited from earlier work
[4] = Lactobacillus gasseri, DSM23882, read-out: MIC
[5] = Lactiplantibacillus plantarum, DSM23881, read-out: MIC
[6] = Lactiplantibacillus plantarum, DSM23881
[7] = E-test, against L. gasseri MCC2
[8] = E-test, against L. plantarum MCC1

| Molecule | MIC breakpoint for resistance, L. plantarum (L. plantarum) | MIC [1, 4] | MIC [2, 5] | MIC breakpoint for resistance, OHOL [3] | MIC breakpoint for resistance, Lactobacillus spp (Lactobacillus spp) | other results |
| --- | --- | --- | --- | --- | --- | --- |
| CC1(C)S[C@@H]2[C@H](NC(=O)[C@H](N)c3ccccc3)C(=O)N2[C@H]1C(=O)O [Ampicillin] | 2 µg/mL | 0.031 µg/mL (≈ 0.0887 µM) | 0.094 µg/mL (≈ 0.269 µM) | 1 µg/mL | 2 µg/mL | – |
| CO[C@@]1(NC(=O)Cc2cccs2)C(=O)N2C(C(=O)O)=C(COC(N)=O)CS[C@@H]21 [Cefoxitin] | – | 1.5 µg/mL (≈ 3.51 µM) | 256 µg/mL (≈ 599 µM) | – | 4 µg/mL | resistance of L. plantarum MCC1 to the antibiotic [2]: resistant |
| CO/N=C(\C(=O)N[C@@H]1C(=O)N2C(C(=O)O)=C(COC(N)=O)CS[C@H]12)c1ccco1 [Cefuroxim] | – | 0.19 µg/mL (≈ 0.448 µM) | 0.5 µg/mL (≈ 1.18 µM) | – | – | – |
| O=C(N[C@H](CO)[C@H](O)c1ccc([N+](=O)[O-])cc1)C(Cl)Cl [Chloramphenicol] | 8 µg/mL | 0.75 µg/mL (≈ 2.32 µM) | 1.5 µg/mL (≈ 4.64 µM) | 4 µg/mL | 16 µg/mL | – |
| O=C(O)c1cn(C2CC2)c2cc(N3CCNCC3)c(F)cc2c1=O [Ciprofloxacin] | – | > 32 µg/mL | 0.38 µg/mL (≈ 1.15 µM) | – | 4 µg/mL | – |
| CCC[C@@H]1C[C@@H](C(=O)N[C@@H]([C@H]2O[C@H](SC)[C@H](O)[C@@H](O)[C@H]2O)[C@H](C)Cl)N(C)C1 [Clindamycin] | – | – | 0.064 µg/mL (≈ 0.151 µM) | – | – | – |
| CC[C@H]1OC(=O)[C@H](C)[C@@H](O[C@H]2C[C@@](C)(OC)[C@@H](O)[C@H](C)O2)[C@H](C)[C@@H](O[C@@H]2O[C@H](C)C[C@H](N(C)C)[C@H]2O)[C@](C)(O)C[C@@H](C)C(=O)[C@H](C)[C@@H](O)[C@]1(C)O [Erythromycin] | 1 µg/mL | 0.047 µg/mL (≈ 0.064 µM) | – | 1 µg/mL | 4 µg/mL | MIC [2, 6]: 0.125 µg/mL (≈ 0.17 µM) |
| C[C@@H](O)[C@H]1C(=O)N2C(C(=O)O)=C(SCCN=CN)C[C@H]12 [Imipenem] | – | 0.047 µg/mL (≈ 0.157 µM) | – | – | – | – |
| CO[C@H]1/C=C/O[C@@]2(C)Oc3c(C)c(O)c4c(O)c(c(/C=N/N5CCN(C)CC5)c(O)c4c3C2=O)NC(=O)/C(C)=C\C=C\[C@H](C)[C@H](O)[C@@H](C)[C@@H](O)[C@@H](C)[C@H](OC(C)=O)[C@@H]1C [Rifampin] | – | 0.064 µg/mL (≈ 0.0778 µM) | – | – | 32 µg/mL | – |
| [H]/N=C(/N)N[C@H]1[C@H](O)[C@@H](O)[C@H](O[C@@H]2O[C@@H](C)[C@](O)(C=O)[C@H]2O[C@@H]2O[C@@H](CO)[C@H](O)[C@@H](O)[C@@H]2NC)[C@@H](N/C(N)=N\[H])[C@@H]1O [Streptomycin] | – | – | 16 µg/mL (≈ 27.5 µM) | 16 µg/mL | 16 µg/mL | – |
| CN(C)[C@@H]1C(O)=C(C(N)=O)C(=O)[C@@]2(O)C(O)=C3C(=O)c4c(O)cccc4[C@@](C)(O)[C@H]3C[C@@H]12 [Tetracycline] | – | 0.5 µg/mL (≈ 1.13 µM) | 2 µg/mL (≈ 4.5 µM) | – | – | – |
| CN[C@H](CC(C)C)C(=O)N[C@H]1C(=O)N[C@@H](CC(N)=O)C(=O)N[C@H]2C(=O)N[C@H]3C(=O)N[C@H](C(=O)N[C@H](C(=O)O)c4cc(O)cc(O)c4-c4cc3ccc4O)[C@H](O)c3ccc(c(Cl)c3)Oc3cc2cc(c3O[C@@H]2O[C@H](CO)[C@@H](O)[C@H](O)[C@H]2O[C@H]2C[C@](C)(N)[C@H](O)[C@H](C)O2)Oc2ccc(cc2Cl)[C@H]1O [Vancomycin] | – | – | – | 2 µg/mL | 4 µg/mL | MIC ([1]; Lactobacillus gasseri, DSM23882): 0.75 µg/mL (≈ 0.518 µM); MIC [2, 6]: 256 µg/mL (≈ 177 µM); resistance of L. plantarum MCC1 to the antibiotic [2]: resistant |
| Gentamicin | 16 µg/mL | – | – | 16 µg/mL | 1 µg/mL | MIC [1, 7]: 2 µg/mL; MIC [2, 8]: 1.5 µg/mL |
| Quinupristin/dalfopristin | 4 µg/mL | – | – | 4 µg/mL | 4 µg/mL | MIC [2, 8]: 1 µg/mL |
| Trim/sulfam | – | – | – | – | 32 µg/mL | MIC [1, 7]: >32 µg/mL |
